From US11186577B2, “Vasopressin receptor antagonists and products and methods related thereto” (BlackThorn Therapeutics, Inc., priority 2017, dated 2021)

Each compound was assayed against human Arginine Vasopressin Receptor 1a (AVPR1a) (Homo sapiens (Human), UniProt P37288) (assay: Vasopressin V1A receptor antagonist assay (AVP-evoked calcium, FLIPR, CHO-AVPR1a cells)). Conditions: not given.
Sequence of human Arginine Vasopressin Receptor 1a (AVPR1a) (P37288 whole entry): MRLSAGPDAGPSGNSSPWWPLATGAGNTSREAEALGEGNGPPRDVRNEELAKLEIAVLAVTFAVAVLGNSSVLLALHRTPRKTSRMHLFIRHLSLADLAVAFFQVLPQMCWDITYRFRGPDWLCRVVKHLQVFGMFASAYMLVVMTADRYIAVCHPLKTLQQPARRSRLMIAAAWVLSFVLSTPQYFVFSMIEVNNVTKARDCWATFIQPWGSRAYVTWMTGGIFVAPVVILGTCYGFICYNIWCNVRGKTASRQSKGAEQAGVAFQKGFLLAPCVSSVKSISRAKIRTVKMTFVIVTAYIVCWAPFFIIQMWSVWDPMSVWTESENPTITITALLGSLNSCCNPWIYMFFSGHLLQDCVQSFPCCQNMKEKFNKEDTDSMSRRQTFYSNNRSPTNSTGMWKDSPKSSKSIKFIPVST
Format: cell-based
Experimental: The purpose of this assay was to determine the inhibitory effect of synthesized compounds on the Vasopressin V1a receptor. The assay as performed in Chinese Hamster Ovary (CHO) cells expressing the human Arginine Vasopressin Receptor 1a (AVPR1a). Arginine Vasopressin (AVP) evokes an increase in intracellular calcium in CHO-AVPR1a cells which is measured in a fluorescence assay on the FLIPR^TETRA using calcium sensitive dyes. Test compounds were assessed for their ability to affect the magnitude of the response to AVP, with antagonists showing a concentration-dependent reduction in the AVP-mediated fluorescence. Compounds were tested in duplicate in a 10-point, 1:3 dilution series starting at a nominal concentration of 3 μM in the assay.
CHO-AVPR1a cells were maintained in routine culture in T175 Flasks at 37° C., 5% CO2. The growth medium consists of Ham's F12 media supplemented with 10% v/v fetal bovine serum, 1× non-essential amino acids, and 0.4 mg/ml Geneticin G418.
On day one, cells were harvested from T175 flasks when they are 80-90% confluent by first washing the cell monolayer with PBS and then dissociated using trypsin 0.05%/EDTA (3 mL for a T175 Flask). The flasks were incubated at room temperature until the cells detached. To the cell suspension, 10 ml of growth media was added and the cell density determined using the Vi-Cell automated cell counter. The cells were spun at 1000 rpm for 3 minutes, then the supernatant was carefully removed and discarded. The cell pellet was re-suspended at 6.0e^5 cells/ml in growth media. 25 μL of cells in growth media was dispensed into each well (15,000 cells per well) of a poly-D-lysine coated black, clear bottomed, 384-well plate. The plates were incubated at 37° C., 5% CO2 overnight.
At the start of each assay day, the potency of AVP was assessed and an EC80 concentration determined for subsequent compound profiling. Assays were performed using a two-step addition protocol on the FLIPR^TETRA; first addition of 5 μl of control or test compound at 10× final in assay buffer with 15 min incubation at 37° C., 5% CO2 followed by 10 μl of AVP at 6× final concentration in assay buffer. […] The assay buffer consisted of HBSS (+Ca/+Mg) supplemented with 20 mM HEPES, and for the preparation of the AVP agonist only, 0.1% w/v bovine serum albumin. The assay was initiated by the removal of growth media from the cells and replacement with 45 μl of Calcium-6 dye (Molecular Devices) prepared at 1× in assay buffer. Cells are loaded with dye for 60-90 min at 37° C., 5% CO2 before initiation of the FLIPR^TETRA protocol. […] At the end of the incubation period, 10 μl of AVP in assay buffer containing 0.1% BSA was added at the previously determined EC80 concentration.
`CN1Cc2cc(Cl)ccc2-n2c(nnc2C2CC3(C2)CN(c2nccc4c2ncn4C)C3)C1` [compound 257] gave an IC50 of 500 to 1000 nM. `CN1Cc2cc(Cl)ccc2-n2c(nnc2C2CC3(C2)CN(C(=O)C2(C)CC2)C3)C1` [compound 31] was tested, and the IC50 was 100 to 500 nM. With `CN1Cc2cc(Cl)ccc2-n2c(nnc2C2CC3(C2)CN(C(=O)C2CCC2)C3)C1` [compound 35] the IC50 was 100 to 500 nM. `CN1Cc2cc(Cl)ccc2-n2c(nnc2C2CC3(C2)CN(C(=O)C2CC2(F)F)C3)C1` (centres unmarked) [compound 124] gave an IC50 of 100 to 500 nM. Compound `Cc1cnc(N2CC3(CC(c4nnc5n4-c4ccc(Cl)cc4CN(C4(C)CC4)C5)C3)C2)nc1` [compound 253] has an IC50 of 100 to 500 nM. `CN1Cc2cc(Cl)ccc2-n2c(nnc2C2CC3(C2)CN(c2ccncn2)C3)C1` [compound 243] showed an IC50 of 100 to 500 nM. `COCCN1Cc2cc(Cl)ccc2-n2c(nnc2C2CC3(C2)CN(c2cccnc2)C3)C1` [compound 55] gave an IC50 of 100 to 500 nM. In the case of `Fc1ccc(N2CC3(CC(c4nnc5n4-c4ccc(Cl)cc4CNC5)C3)C2)nc1` [compound 60, 8-chloro-1-(2-(5-fluoropyridin-2-yl)-2-azaspiro[3.3]heptan-6-yl)-5,6-dihydro-4H-benzo[f][1,2,4]triazolo[4,3-a][1,4]diazepine], the IC50 is reported as 100 to 500 nM. Compound `Cc1cnc(N2CC3(CC(c4nnc5n4-c4ccc(Cl)cc4CN(C4CC4)C5)C3)C2)nc1` [compound 234] has an IC50 of 100 to 500 nM. `Cc1cncnc1N1CC2(CC(c3nnc4n3-c3ccc(Cl)cc3CN(C)C4)C2)C1` [compound 251] was tested, and the IC50 was 100 to 500 nM. `CC(C)N1Cc2cc(Cl)ccc2-n2c(nnc2C2CC3(C2)CN(c2cccnc2)C3)C1` [compound 51] was tested, and the IC50 was 100 to 500 nM. In the case of `Clc1ccc2c(c1)CN(C1CC1)Cc1nnc(C3CC4(C3)CN(c3noc(C5CC5)n3)C4)n1-2` [compound 269], the IC50 is reported as 500 to 1000 nM. For `CN1Cc2cc(Cl)ccc2-n2c(nnc2C2CC3(C2)CN(S(C)(=O)=O)C3)C1` [compound 34, 8-chloro-5-methyl-1-(2-(methylsulfonyl)-2-azaspiro[3.3]heptan-6-yl)-5,6-dihydro-4H-benzo[f][1,2,4]triazolo[4,3-a][1,4]diazepine], the IC50 was 500 to 1000 nM.

Same assay, conditions: read-out: V1a IC50
For `Cn1nc(N2CC3(CC(c4nnc5n4-c4ccc(Cl)cc4CN(C4CC4)C5)C3)C2)c2cccnc21` [compound 250], the IC50 was < 100 nM. `CCOC(=O)N1Cc2cc(Cl)ccc2-n2c(C3CC4(C3)CN(c3ccc(F)cn3)C4)nnc2C1C` (single isomer, unassigned) [Cpd 169B] was tested, and the IC50 was 100 to 500 nM. For `CC1(N2Cc3cc(Cl)ccc3-n3c(nnc3C3CC4(C3)CN(c3ncc(F)cn3)C4)C2)CC1` [compound 261], the IC50 was < 100 nM. `CN1Cc2cc(Cl)ccc2-n2c(nnc2C2CC3(C2)CN(c2ncccn2)C3)C1` [compound 38] was tested, and the IC50 was < 100 nM. With `Cc1nc(N2CC3(CC(c4nnc5n4-c4ccc(Cl)cc4CN(C)C5)C3)C2)ncc1F` [compound 240] the IC50 was < 100 nM. With `Cc1nccnc1N1CC2(CC(c3nnc4n3-c3ccc(Cl)cc3CN(C3CC3)C4)C2)C1` [compound 222] the IC50 was < 100 nM. With `CCOC(=O)N1Cc2cc(Cl)ccc2-n2c(C3CC4(C3)CN(c3ncc(F)cn3)C4)nnc2C1C` (single isomer, unassigned) [Cpd 172B] the IC50 was > 1000 nM. In the case of `N#Cc1ccnc(N2CC3(CC(c4nnc5n4-c4ccc(Cl)cc4CN(C4CC4)C5)C3)C2)c1` [compound 232], the IC50 is reported as < 100 nM. In the case of `Cc1cc(N2CC3(CC(c4nnc5n4-c4ccc(Cl)cc4CN(C4CC4)C5)C3)C2)ncc1F` [compound 235], the IC50 is reported as < 100 nM. With `CN1Cc2cc(Cl)ccc2-n2c(nnc2C2CC3(C2)CN(c2ncc(F)cn2)C3)C1` [compound 236, 8-chloro-5-methyl-1-(2-(5-fluoropyrimidin-2-yl)-2-azaspiro[3.3]heptan-6-yl)-5,6-dihydro-4H-benzo[f][1,2,4]triazolo[4,3-a][1,4]diazepine] the IC50 was < 100 nM. `CN1Cc2cc(Cl)ccc2-c2c(C3CC4(C3)CN(c3ccc(F)cn3)C4)noc2C1` [compound 97, 8-chloro-1-(2-(5-fluoropyridin-2-yl)-2-azaspiro[3.3]heptan-6-yl)-5-methyl-5,6-dihydro-4H-benzo[c]isoxazolo[4,5-e]azepine] was tested, and the IC50 was < 100 nM. `CN1Cc2cc(Cl)ccc2-n2c(nnc2C2CC3(C2)CN(C(=O)OC2CCOCC2)C3)C1` [compound 29] was tested, and the IC50 was > 1000 nM. With `CC1c2nnc(C3CC4(C3)CN(c3ccc(F)cn3)C4)n2-c2ccc(Cl)cc2CN1C` (single isomer, unassigned) [Cpd 179B] the IC50 was 100 to 500 nM. For `CN1Cc2cc(Cl)ccc2-n2c(nnc2C2CC3(C2)CN(c2nc4cnccc4n2C)C3)C1` [compound 258], the IC50 was > 1000 nM. With `CC1(N2Cc3cc(Cl)ccc3-n3c(nnc3C3CC4(C3)CN(c3ncccn3)C4)C2)CC1` [compound 264] the IC50 was < 100 nM. In the case of `CN1Cc2cc(Cl)ccc2-n2c(nnc2C2CC3(C2)CN(c2noc4ccccc24)C3)C1` [compound 256], the IC50 is reported as < 100 nM. `CC(C)OC(=O)N1Cc2cc(Cl)ccc2-n2c(C3CC4(C3)CN(c3ccncn3)C4)nnc2C1C` (single isomer, unassigned) [Cpd 187A] was tested, and the IC50 was < 100 nM. With `CC1c2nnc(C3CC4(C3)CN(c3ccc(F)cn3)C4)n2-c2ccc(Cl)cc2CN1C(=O)OC1CC1` (single isomer, unassigned) [Cpd 191B] the IC50 was > 1000 nM. For `CN1Cc2cc(Cl)ccc2-n2c(nnc2C2CC3(C2)CN(C(=O)C2CCOCC2)C3)C1` [compound 27], the IC50 was > 1000 nM. With `CC(C)OC(=O)N1Cc2cc(Cl)ccc2-n2c(C3CC4(C3)CN(c3ccncn3)C4)nnc2C1C` (single isomer, unassigned) [Cpd 187B] the IC50 was > 1000 nM. `CC(C)(C)OC(=O)N1Cc2cc(Cl)ccc2-n2c(nnc2C2CC3(C2)CN(c2ccccn2)C3)C1` [compound 62] was tested, and the IC50 was < 100 nM. For `Cc1cncc(N2CC3(CC(c4nnc5n4-c4ccc(Cl)cc4CN(C4CC4)C5)C3)C2)n1` [compound 221], the IC50 was < 100 nM. For `Clc1ccc2c(c1)CN(C1CCC1)Cc1nnc(C3CC4(C3)CN(c3cnccn3)C4)n1-2` [compound 40], the IC50 was < 100 nM. For `COC(=O)N1Cc2cc(Cl)ccc2-n2c(C3CC4(C3)CN(c3ncncc3F)C4)nnc2C1C` (single isomer, unassigned) [Cpd 188B], the IC50 was > 1000 nM. `CN1Cc2cc(Cl)ccc2-n2c(nnc2C2CC3(C2)CN(c2noc(C4CC4)n2)C3)C1` [compound 267] was tested, and the IC50 was > 1000 nM. `CCOC(=O)N1Cc2cc(Cl)ccc2-n2c(C3CC4(C3)CN(c3ncccn3)C4)nnc2C1C` (single isomer, unassigned) [Cpd 168B] gave an IC50 of 100 to 500 nM. With `Cc1cncc(N2CC3(CC(c4nnc5n4-c4ccc(Cl)cc4CN(C)C5)C3)C2)n1` [compound 237] the IC50 was < 100 nM. For `COC(=O)N1Cc2cc(Cl)ccc2-n2c(C3CC4(C3)CN(c3ccncn3)C4)nnc2C1C` (single isomer, unassigned) [Cpd 184B], the IC50 was > 1000 nM. `Fc1cncnc1N1CC2(CC(c3nnc4n3-c3ccc(Cl)cc3CN(C3CC3)C4)C2)C1` [compound 247] was tested, and the IC50 was < 100 nM. In the case of `O=C(C(F)F)N1Cc2cc(Cl)ccc2-n2c(nnc2C2CC3(C2)CN(c2cnccn2)C3)C1` [compound 82], the IC50 is reported as < 100 nM. With `Cc1cc(N2CC3(CC(c4nnc5n4-c4ccc(Cl)cc4CN(C4(C)CC4)C5)C3)C2)ncc1F` [compound 245] the IC50 was < 100 nM. `COC(=O)N1Cc2cc(Cl)ccc2-n2c(C3CC4(C3)CN(c3cnccn3)C4)nnc2C1C` (single isomer, unassigned) [Cpd 165B] showed an IC50 of 500 to 1000 nM. Compound `CC1c2nnc(C3CC4(C3)CN(c3ccc(F)cn3)C4)n2-c2ccc(Cl)cc2CN1C(=O)C(C)(C)F` (single isomer, unassigned) [Cpd 178B] has an IC50 of 100 to 500 nM. `CN1Cc2cc(Cl)ccc2-n2c(nnc2C2CC3(C2)CN(C(=O)CC2CC2)C3)C1` [compound 32] was tested, and the IC50 was > 1000 nM. `CC(C)OC(=O)N1Cc2cc(Cl)ccc2-n2c(C3CC4(C3)CN(c3ncc(F)cn3)C4)nnc2C1C` (single isomer, unassigned) [Cpd 201B] was tested, and the IC50 was 500 to 1000 nM. In the case of `O=C(C1C[C@H]1F)N1Cc2cc(Cl)ccc2-n2c(nnc2C2CC3(C2)CN(c2ccc(F)cn2)C3)C1` (some centres unmarked) [compound 158], the IC50 is reported as < 100 nM. With `FC(F)(F)Oc1cccnc1N1CC2(CC(c3nnc4n3-c3ccc(Cl)cc3CN(C3CC3)C4)C2)C1` [compound 272] the IC50 was < 100 nM. For `CCOC(=O)N1Cc2cc(Cl)ccc2-n2c(C3CC4(C3)CN(c3nccc(C(F)(F)F)n3)C4)nnc2C1C` (centres unmarked) [compound 190], the IC50 was < 100 nM. Compound `COC(=O)N1Cc2cc(Cl)ccc2-n2c(C3CC4(C3)CN(c3ncc(F)cn3)C4)nnc2C1C` (single isomer, unassigned) [Cpd 170B] has an IC50 of 500 to 1000 nM. In the case of `COCCN1Cc2cc(Cl)ccc2-n2c(nnc2C2CC3(C2)CN(c2ccc(F)cn2)C3)C1` [compound 44], the IC50 is reported as < 100 nM.
